A short description of the data set: in vitro. As to conditions: rat, gh3-tre-luc cells.

This passage reports CC50 results from PMC6792352, “Limited Chemical Structural Diversity Found to Modulate Thyroid Hormone Receptor in the Tox21 Chemical Library” (Environmental Health Perspectives, 2019).

Structures can show the parent of a compound that is named as a salt. Bounds are passed on as bounds.

As a reminder, the CC50 is the concentration giving 50% cytotoxicity. `C[C@@H](O)[C@H]1C(=O)N2C(C(=O)O)=C(S[C@@H]3CN[C@H](C(=O)N(C)C)C3)[C@H](C)[C@H]12` [Meropenem] yielded a cytotoxic concentration (CC50) at 24 h (AC50 (uM) modified / 1000) of over 50 µM. As for `CCN(CC)N=O` [N-Nitrosodiethylamine], the CC50 at 24 h (AC50 (uM) modified / 1000, Tox21_110001=Tox21_201255, viability, 1 nM T3 present, 24 h) was over 90 µM.

Under “AC50 (uM) modified / 1000”, `Cc1c(OCC(F)(F)F)ccnc1C[S+]([O-])c1nc2ccccc2[nH]1` (stereo not drawn) [Lansoprazole] displayed a CC50 at 24 h of over 90 µM. On the same count and under the same terms, the result for `O=[N+]([O-])c1cccc(Cl)c1Cl` [2,3-Dichloronitrobenzene] reads over 90 µM. `FC(F)(F)C(F)(F)C(F)(F)C(F)(F)CCI` [1,1,1,2,2,3,3,4,4-Nonafluoro-6-iodohexane]: the cytotoxic concentration (CC50) at 24 h (AC50 (uM) modified / 1000) is over 40 µM. Still for that read-out and setting: to `O=C1O[C@H]2[C@H](O)[C@@H]1OC(O)[C@H]2O` (stereo partly drawn) [Mannuronic acid lactone] belongs over 50 µM. Same read-out and setting: the result for `O=C1CC[C@H](C(=O)N2CCCCC2)N1` [Fasoracetam] reads over 50 µM; that for `CC(C)(C)C(=O)O` [2,2-Dimethylpropanoic acid], over 90 µM; that for `O=C(O)/C=C(\CC(=O)O)C(=O)O` [trans-Aconitic acid], over 50 µM. Still for that read-out and setting: to `COC(=O)[C@H]1[C@H]2C[C@H]3c4[nH]c5ccccc5c4CCN3C[C@H]2CC[C@@H]1O` [Rauwolscine] belongs over 50 µM; to `CCC(=O)c1c(O)cc(O)cc1O` [Flopropione], over 50 µM. As to `O=C(/C=C/c1ccc(O)c(O)c1)O[C@@H]1C[C@](OC(=O)/C=C/c2ccc(O)c(O)c2)(C(=O)O)C[C@@H](O)[C@H]1O` [1,5-Dicaffeoylquinic acid], under “AC50 (uM) modified / 1000”, the CC50 at 24 h is over 50 µM.

For the compound `CC(=O)N(O)CCCCCNC(=O)CCC(=O)N(O)CCCCCNC(=O)CCC(=O)N(O)CCCCCN` [Deferoxamine mesylate], where the note is “AC50 (uM) modified / 1000”, the CC50 at 24 h is over 20 µM.

In the case of `CNC(=S)NN` [N-Methylhydrazinecarbothioamide], the half-maximal cytotoxic concentration (CC50) at 24 h (AC50 (uM) modified / 1000) is 52.5 µM. Same read-out and setting: to `ClCc1ccccn1` [2-(Chloromethyl)pyridine hydrochloride] belongs over 90 µM; to `CCCCCCCCCC[N+](C)(C)[O-]` [N,N-Dimethyldecylamine oxide], over 90 µM. Same read-out and setting: the result for `COC(=O)[C@@H]1[C@H]2C[C@H]3c4[nH]c5ccccc5c4CCN3C[C@@H]2CC[C@@H]1O` [Yohimbine] reads over 50 µM; that for `CC[C@H](C)[C@H]1O[C@]2(C=C[C@@H]1C)C[C@@H]1C[C@@H](C/C=C(\C)[C@@H](O[C@H]3C[C@H](OC)[C@@H](O[C@H]4C[C@H](OC)[C@H](NC(C)=O)[C@H](C)O4)[C@H](C)O3)[C@@H](C)/C=C/C=C3\CO[C@@H]4[C@H](O)C(C)=C[C@@H](C(=O)O1)[C@]34O)O2` [Eprinomectin B1a], 7.24 µM. On the same count and under the same terms, to `C1=CCC(c2ccccc2)CC1` (stereo not drawn) [4-Phenyl-1-cyclohexene] belongs over 90 µM; to `O=C(O)CONC(=O)c1ccccc1` [Benzadox], over 90 µM. `O=C(O)[C@@H]1[C@H]2C[C@H]3c4[nH]c5ccccc5c4CCN3C[C@@H]2CC[C@@H]1O` [Yohimbic acid monohydrate] displayed a 50% cytotoxic concentration (CC50) at 24 h (AC50 (uM) modified / 1000) of over 20 µM.

On to `CC(C)(C)OO` [tert-Butyl hydroperoxide (70% Solution in Water)], for which, under “AC50 (uM) modified / 1000”, the CC50 at 24 h was over 90 µM. Same read-out and setting: to `C[C@H]1[C@H](OC(=O)CCC(=O)O)O[C@@H]2O[C@@]3(C)CC[C@H]4[C@H](C)CC[C@@H]1[C@@]24OO3` [Artesunate] belongs 2.69 µM; to `CC[C@H](C)C(=O)O[C@H]1C[C@H](O)C=C2C=C[C@H](C)[C@H](CC[C@@H](O)C[C@@H](O)CC(=O)O)[C@H]21` [Pravastatin sodium], over 90 µM.

`O=C(O)Cc1ccc(Cl)cc1Cl` [2,4-Dichlorophenylacetic acid]: for the setting “AC50 (uM) modified / 1000”, the half-maximal cytotoxic concentration (CC50) at 24 h is over 90 µM. Same read-out and setting: to `CN(C)C(=O)Oc1cccc([N+](C)(C)C)c1` [Neostigmine bromide] belongs over 50 µM. The same measure, in the same setting: the result for `c1cnc2c(n1)CCCC2` [5,6,7,8-Tetrahydroquinoxaline] reads over 90 µM. Regarding `CC(C)Oc1cccc(NC(=O)c2ccccc2C(F)(F)F)c1` [Flutolanil], the CC50 at 24 h (AC50 (uM) modified / 1000) is over 90 µM. Compound `Cc1ccc(O)c([N+](=O)[O-])c1` [4-Methyl-2-nitrophenol] had a 50% cytotoxic concentration (CC50) at 24 h (AC50 (uM) modified / 1000) of over 90 µM. On the same count and under the same terms, to `Cc1cccc(NC(=S)N(C)C)c1` [Methiuron] belongs over 90 µM. `CC(C)(C)OC(=O)c1ncn2c1[C@@H]1CCCN1C(=O)c1c(Br)cccc1-2` [Bretazenil] displayed a 50% cytotoxic concentration (CC50) at 24 h (AC50 (uM) modified / 1000, Tox21_110001=Tox21_111947, viability, 1 nM T3 present, 24 h) of over 50 µM. Under “AC50 (uM) modified / 1000”, `CC(C)(C)NC[C@H](O)c1ccc(O)cc1Cl` [Meluadrine] displayed a 50% cytotoxic concentration (CC50) at 24 h of over 50 µM. Same read-out and setting: to `CCCCCCOCCO` [2-Hexyloxyethanol] belongs over 90 µM; to `CCCOC(=O)c1ccc(C(=O)OCCC)nc1` [Dipropyl 2,5-pyridinedicarboxylate], over 90 µM; to `C[Se]CC[C@H](N)C(=O)O` [Selenomethionine], over 50 µM. On the same count and under the same terms, to `NCCCC[C@H](N[C@@H](CCc1ccccc1)C(=O)O)C(=O)N1CCC[C@H]1C(=O)O` [Lisinopril dihydrate] belongs over 20 µM; to `CN(C(=O)CN(CCO)CC(=O)N(C)C(C)(C)Cc1ccccc1)C(C)(C)Cc1ccccc1` [Oxethazaine], 16.2 µM. Still for that read-out and setting: the result for `CCCN[C@H]1CCc2nc(N)sc2C1` [Pramipexole dihydrochloride monohydrate] reads over 100 µM; that for `O=C(OCCOCCO)c1ccccc1Nc1cccc(C(F)(F)F)c1` [Etofenamate], over 20 µM; that for `CCCCCCOc1cc(C)c(O)c(C)c1C` [1-O-Hexyl-2,3,5-trimethylhydroquinone], 42.6 µM. For `CC(C)(C#N)c1cc(Cn2cncn2)cc(C(C)(C)C#N)c1` [Anastrozole], the CC50 at 24 h (AC50 (uM) modified / 1000) is over 30 µM.

The compound `CCCN(CCC)S(=O)(=O)c1ccc(C(=O)O)cc1` [Probenecid] had a CC50 at 24 h (AC50 (uM) modified / 1000) of over 90 µM. The same measure, in the same setting: the result for `O=C(O)[C@@H]1CSCN1` [L-Thioproline] reads over 50 µM; that for `O=C1CCCCCN1` [Caprolactam], over 90 µM; that for `Nc1ccc2cc(S(=O)(=O)O)cc(O)c2c1N=Nc1ccccc1C(F)(F)F` [Acid Red 337], 89.3 µM. On the same count and under the same terms, to `C#C[C@]1(O)CC[C@H]2[C@@H]3[C@H](C)CC4=C(CCC(=O)C4)[C@H]3CC[C@@]21C` [Tibolone] belongs 51.8 µM. Still for that read-out and setting: to `CCCCCCCCCCCCCCCCN(C)C` [Dimethylcetylamine] belongs over 5 µM; to `CCOc1ccc(OCC)c(Cl)c1` [2-Chloro-1,4-diethoxybenzene], over 90 µM; to `CC(CN(C)C)CN1c2ccccc2CCc2ccccc21` (stereo not drawn) [Trimipramine maleate], 4.77 µM.

`CCc1c2c(nc3ccc(OC(=O)N4CCC(N5CCCCC5)CC4)cc13)-c1cc3c(c(=O)n1C2)COC(=O)[C@]3(O)CC` [Irinotecan hydrochloride] had a cytotoxic concentration (CC50) at 24 h (AC50 (uM) modified / 1000) of over 50 µM.

`CCC1(c2ccccc2)C(=O)N(COC)C(=O)N(COC)C1=O` [Eterobarb] displayed a half-maximal cytotoxic concentration (CC50) at 24 h (AC50 (uM) modified / 1000, Tox21_110001=Tox21_110991, viability, 1 nM T3 present, 24 h) of over 50 µM.

On to `CC(=O)Nc1ccc(C)cc1` [N-Acetyl-p-toluidine], for which, for the setting “AC50 (uM) modified / 1000”, the 50% cytotoxic concentration (CC50) at 24 h is over 90 µM.

Regarding `CCCCC(CC)C(=O)Cl` (stereo not drawn) [2-Ethylhexanoyl chloride], for the setting “AC50 (uM) modified / 1000”, the cytotoxic concentration (CC50) at 24 h is over 90 µM. In turn, `BrCCCCCBr` [Pentane,1,5-dibromo-] displayed a CC50 at 24 h (AC50 (uM) modified / 1000) of over 100 µM. `CCc1cccc(O)c1` [3-Ethylphenol] had a CC50 at 24 h (AC50 (uM) modified / 1000) of over 90 µM.

On to `O=C(OCCOCCOC(=O)c1ccccc1)c1ccccc1` [Diethylene glycol dibenzoate], for which the CC50 at 24 h (AC50 (uM) modified / 1000) is over 90 µM. Still for that read-out and setting: the result for `CC1=C(C(=O)Nc2ccccc2)S(=O)(=O)CCO1` [Oxycarboxin] reads 40.7 µM.

`CC1=C(C)C(=O)C(CCCCC#CCCCC#CCO)=C(C)C1=O` [Docebenone] gave a CC50 at 24 h (AC50 (uM) modified / 1000) of 23.5 µM. Still for that read-out and setting: the result for `C/C=C/C=C/CO` [(2E,4E)-Hexa-2,4-dien-1-ol] reads over 90 µM; that for `Sc1nnc(S)s1` [2,5-Dimercapto-1,3,4-thiadiazole], over 90 µM. For the setting “AC50 (uM) modified / 1000”, `COc1ccc(C(=O)c2ccc(OC)cc2O)c(O)c1` [2,2'-Dihydroxy-4,4'-dimethoxybenzophenone] came in with a CC50 at 24 h of over 90 µM.

The compound `CC(=O)OCc1ccccc1` [Benzyl acetate] returned a CC50 at 24 h (AC50 (uM) modified / 1000) of over 90 µM. On the same count and under the same terms, the result for `CCCCCCCCCCOCC(O)CN` (stereo not drawn) [Decominol hydrochloride] reads 6.25 µM. Same read-out and setting: the result for `CCCCCCCCCCCCCCCC(=O)OC[C@H](O)[C@H]1OC(=O)C(O)=C1O` [Ascorbyl palmitate] reads over 50 µM; that for `COc1ccc(C(=O)/C(Br)=C\C(=O)O)cc1` [Cytembena], 44 µM. On to `CN(C)C(=O)Cl` [Dimethylcarbamoyl chloride], for which the CC50 at 24 h (AC50 (uM) modified / 1000, Tox21_110001=Tox21_201334, viability, 1 nM T3 present, 24 h) was over 90 µM. `CCCCOC(=O)COc1ccc(Cl)cc1Cl` [2,4-D 1-butyl ester] had a half-maximal cytotoxic concentration (CC50) at 24 h (AC50 (uM) modified / 1000) of over 90 µM.

In turn, `CCCCCCCCOc1ccc(C(=O)O)cc1` [4-Octyloxybenzoic acid] gave a half-maximal cytotoxic concentration (CC50) at 24 h (AC50 (uM) modified / 1000) of over 90 µM. Still for that read-out and setting: the result for `CC(C)[N+](C)(CCOC(=O)C1c2ccccc2Oc2ccccc21)C(C)C` [Propantheline bromide] reads over 90 µM; that for `Oc1ccc(C(O)CNCCCCCCNCC(O)c2ccc(O)c(O)c2)cc1O` (stereo not drawn) [Hexoprenaline sulfate], 20.9 µM. Compound `CCCCCCC(C)O` (stereo not drawn) [2-Octanol] returned a CC50 at 24 h (AC50 (uM) modified / 1000) of over 90 µM. The compound `OC[C@@H](O)[C@H](O)[C@@H](O)[C@@H](O)CO` [L-Glucitol] displayed a CC50 at 24 h (AC50 (uM) modified / 1000) of over 90 µM. Same read-out and setting: to `C[C@@H](Oc1ccc(CNC(=O)c2cccnc2Oc2ccc3c(c2)OCO3)c(F)c1)C(=O)O` [CP-671305] belongs over 90 µM; to `CCOC(=O)Cn1c(=O)sc2cccc(Cl)c21` [Benazolin-ethyl], over 90 µM. For the setting “AC50 (uM) modified / 1000, Tox21_110001=Tox21_201726, viability, 1 nM T3 present, 24 h”, `ClCCBr` [1-Chloro-2-bromoethane] registered a cytotoxic concentration (CC50) at 24 h of over 90 µM.
